Experimental data: US20220017572A1, “GEMINOID LIPOPEPTIDE COMPOUNDS AND THEIR USES” (Erasmus University Medical Center Rotterdam, priority 2016, published 2022)
Non-standard residues stand in square brackets, D forms with d. Residues, ends and D or L forms follow the SMILES beside them. C12 = C12 alkyl chain at peptide end (geminoid); C16 = C16 alkyl chain at peptide end (geminoid); C20 = C20 alkyl chain at peptide end (geminoid); C3 = C3 alkyl chain at peptide end

Molecular target: T1, dengue 2 protease (Dengue virus type 2, UniProt P14340)
T1 construct: The active site of the dengue protease is in the N-terminal part of NS3
T1 sequence (P14340 1476-1653): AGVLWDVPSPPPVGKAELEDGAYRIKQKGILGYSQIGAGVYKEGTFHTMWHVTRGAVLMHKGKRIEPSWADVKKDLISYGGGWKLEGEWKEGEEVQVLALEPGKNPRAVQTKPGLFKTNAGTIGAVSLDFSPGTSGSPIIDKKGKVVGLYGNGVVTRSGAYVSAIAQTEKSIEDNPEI
Experiment: Dengue 2 protease inhibition, hydrolysis of Z-RR-MCA
Type: biochemical, dengue 2 virus
Design: Activity with inhibitors: unit not given here
Conditions: not given
Experimental: The active site of the dengue protease is in the N-terminal part of NS3 which is also a serine protease with catalytic triad Asp79-His51-Ser135, but requires […] (CF40) for activity; the inhibition reported here was studied on a […] (CF40-GGGGSGGGG-NS3; (SEQ ID NO:54)) which has also been structurally characterized [Erbel et al., 2006; Luo et al. 2008].
Substrate was added in a concentration 10 times the Km, and the inhibitor compounds of type C (C16-KGnK-C16, C16-KAnK-C16, and C16-RAnR-C16) were added in increasing concentrations (1.0, 5.0, 10.0, 20.0, 40.0 μL) from a stock solution of 2 mg in 1 mL DMSO. The residual activity was measured in a Hitachi F2500 spectrofluorimeter, and plots were fitted using the Grafit® software (Erithracus Software, Horley, Surrey, UK). All the assays were calculated by the Morrison equation for competitive inhibition (eq. 1, [Morrison, 1969]). The amount of substrate used for the tight binding titration experiments follow all the requirements, where [S]<<Km for all enzymes, so the Kiapp=Ki.
Range of Proteases Inhibited by Geminoids, Determination of Ki with Z-RR-MCA (Dengue 2 Protease) and Ac-RVRR-MCA (Furin) (SEQ ID NO:60).

Molecule	Ki [µM]
CCCCCCCCCCCCNC(=O)[C@H](CCCCN)NC(=O)[C@H](C)NC(=O)[C@H](C)NC(=O)[C@H](C)NC(=O)[C@H](CCCCN)NC(=O)CCCCCCCCCCC [C12KA3KC12, n-C11H23C(O)-Lys-(Ala)3-Lys-(n-C12H25).2TFA] (HELM PEPTIDE1{[CCCCCCCCCCCC(=O)[*:2]].K.A.A.A.K.[CCCCCCCCCCCCN[*:1]]}$$$$V2.0)	5.4
CCCCCCCCCCCCCCCCNC(=O)[C@H](CCCNC(=N)N)NC(=O)[C@H](C)NC(=O)[C@H](C)NC(=O)[C@H](C)NC(=O)[C@H](CCCNC(=N)N)NC(=O)CCCCCCCCCCCCCCC [C16RA3RC16, n-C15H31C(O)-Arg-(Ala)3-Arg-(n-C16H33).2TFA] (HELM PEPTIDE1{[CCCCCCCCCCCCCCCC(=O)[*:2]].R.A.A.A.R.[CCCCCCCCCCCCCCCCN[*:1]]}$$$$V2.0)	1.3

Same assay, conditions: 5 μM of inhibitor; 10 μM Z-RR-MCA, pH 9.0, 37° C.; initial activity in UAF/min

Molecule	Activity with inhibitors
CCCCCCCCCCCCNC(=O)[C@H](CCCCN)NC(=O)[C@H](C)NC(=O)[C@H](C)NC(=O)[C@H](C)NC(=O)[C@H](CCCCN)NC(=O)CCCCCCCCCCC [C12KA3KC12, n-C11H23C(O)-Lys-(Ala)3-Lys-(n-C12H25).2TFA] (HELM PEPTIDE1{[CCCCCCCCCCCC(=O)[*:2]].K.A.A.A.K.[CCCCCCCCCCCCN[*:1]]}$$$$V2.0)	30

Same assay, conditions: 15 μM of inhibitor; 10 μM Z-RR-MCA, pH 9.0, 37° C.; initial activity in UAF/min

Molecule	Activity with inhibitors
CCCCCCCCCCCCCCCCNC(=O)[C@H](CCCNC(=N)N)NC(=O)[C@H](C)NC(=O)[C@H](C)NC(=O)[C@H](C)NC(=O)[C@H](CCCNC(=N)N)NC(=O)CCCCCCCCCCCCCCC [C16RA3RC16, n-C15H31C(O)-Arg-(Ala)3-Arg-(n-C16H33).2TFA] (HELM PEPTIDE1{[CCCCCCCCCCCCCCCC(=O)[*:2]].R.A.A.A.R.[CCCCCCCCCCCCCCCCN[*:1]]}$$$$V2.0)	55

System: DENV2 protease replicon
Experiment: DENV2 protease replicon assay
Type: cell-based
Conditions: lowest concentration with observed activity in replicon assay

Molecule	Replicon activity [μM] (1) [µM]
C2-AKAK-C3: alkylated peptide in shorthand Cp-Zn-Cq, peptide SEQ ID NO: 74 (Et-AKAK-C3)	10.0
C2-LKAK-C3: alkylated peptide in shorthand Cp-Zn-Cq, peptide SEQ ID NO: 75 (Et-LKAK-C3)	10.0
C3-AKKK-C3: alkylated peptide in shorthand Cp-Zn-Cq, peptide SEQ ID NO: 71 ({C3 alkyl}-AKKK-{C3 alkyl})	10.0
C3-ARRK-C3: alkylated peptide in shorthand Cp-Zn-Cq, peptide SEQ ID NO: 76 ({C3 alkyl}-ARRK-{C3 alkyl})	3.0
C3-FKKK-C3: alkylated peptide in shorthand Cp-Zn-Cq, peptide SEQ ID NO: 73 ({C3 alkyl}-FKKK-{C3 alkyl})	10.0
C3-LKKK-C3: alkylated peptide in shorthand Cp-Zn-Cq, peptide SEQ ID NO: 72	10.0
C8-AKAK-C8: alkylated peptide in shorthand Cp-Zn-Cq, peptide SEQ ID NO: 74 ({C8 alkyl}-AKAK-{C8 alkyl})	10.0
C8-AKKK-C8: alkylated peptide in shorthand Cp-Zn-Cq, peptide SEQ ID NO: 71 ({C8 alkyl}-AKKK-{C8 alkyl})	10.0
C8-ARRK-C8: alkylated peptide in shorthand Cp-Zn-Cq, peptide SEQ ID NO: 76 ({C8 alkyl}-ARRK-{C8 alkyl})	10.0
C8-FKKK-C8: alkylated peptide in shorthand Cp-Zn-Cq, peptide SEQ ID NO: 73 ({C8 alkyl}-FKKK-{C8 alkyl})	10.0
C8-LKAK-C8: alkylated peptide in shorthand Cp-Zn-Cq, peptide SEQ ID NO: 75 ({C8 alkyl}-LKAK-{C8 alkyl})	10.0
C8-LKKK-C8: alkylated peptide in shorthand Cp-Zn-Cq, peptide SEQ ID NO: 72	10.0
C12-AKAK-C12: geminoid in shorthand Cp-Zn-Cq, peptide SEQ ID NO: 74	10.0
C12-ARRK-C12: geminoid in shorthand Cp-Zn-Cq, peptide SEQ ID NO: 76	0.3
C12-FKKK-C12: geminoid in shorthand Cp-Zn-Cq, peptide SEQ ID NO: 73	10.0
C12-LKAK-C12: geminoid in shorthand Cp-Zn-Cq, peptide SEQ ID NO: 75	10.0
C12-RARK-C12: geminoid in shorthand Cp-Zn-Cq, peptide SEQ ID NO: 77	1.0
C16-AAKK-C16: geminoid in shorthand Cp-Zn-Cq, peptide SEQ ID NO: 62	5.0
C16-AFKK-C16: geminoid in shorthand Cp-Zn-Cq, peptide SEQ ID NO: 68	5.0
C16-AKAKS-C16: geminoid in shorthand Cp-Zn-Cq, peptide SEQ ID NO: 89	1.0
C16-AKKK-C16: geminoid in shorthand Cp-Zn-Cq, peptide SEQ ID NO: 71	1.0
C16-ALKK-C16: geminoid in shorthand Cp-Zn-Cq, peptide SEQ ID NO: 65	10.0
C16-ARRK-C16: geminoid in shorthand Cp-Zn-Cq, peptide SEQ ID NO: 76	0.3
C16-D-AKAK-C16: geminoid in shorthand Cp-Zn-Cq, D-peptide, SEQ ID NO: 74 (C16-[dA][dK][dA][dK]-C16)	2.9

Molecule	Replicon activity [μM] (1) [µM]
C16-D-AKAKG-C16: geminoid in shorthand Cp-Zn-Cq, D-peptide, SEQ ID NO: 87 (C16-[dA][dK][dA][dK]G-C16)	3.0
C16-D-AKAKS-C16: geminoid in shorthand Cp-Zn-Cq, D-peptide, SEQ ID NO: 89 (C16-[dA][dK][dA][dK][dS]-C16)	5.0
C16-D-LKAK-C16: geminoid in shorthand Cp-Zn-Cq, D-peptide, SEQ ID NO: 75 (C16-[dL][dK][dA][dK]-C16)	9.9
C16-D-LKAK-L-S-C16: geminoid in shorthand Cp-Zn-Cq, D-LKAK with L-S, SEQ ID NO: 90 (C16-[dL][dK][dA][dK]S-C16)	3.0
C16-D-LKAKG-C16: geminoid in shorthand Cp-Zn-Cq, D-peptide, SEQ ID NO: 88 (C16-[dL][dK][dA][dK]G-C16)	3.0
C16-FAKK-C16: geminoid in shorthand Cp-Zn-Cq, peptide SEQ ID NO: 64	3.0
C16-FFKK-C16: geminoid in shorthand Cp-Zn-Cq, peptide SEQ ID NO: 70	5.0
C16-FFQK-C16: geminoid in shorthand Cp-Zn-Cq, peptide SEQ ID NO: 82	3.0
C16-FLKK-C16: geminoid in shorthand Cp-Zn-Cq, peptide SEQ ID NO: 67	3.0
C16-GLKR-C16: geminoid in shorthand Cp-Zn-Cq, peptide SEQ ID NO: 84	3.0
C16-LAKK-C16: geminoid in shorthand Cp-Zn-Cq, peptide SEQ ID NO: 63	5.0
C16-LFKK-C16: geminoid in shorthand Cp-Zn-Cq, peptide SEQ ID NO: 69	10.0
C16-LKAK-C16: geminoid in shorthand Cp-Zn-Cq, peptide SEQ ID NO: 75	3.0
C16-LKKK-C16: geminoid in shorthand Cp-Zn-Cq, peptide SEQ ID NO: 72	1.0
C16-LKRR-C16: geminoid in shorthand Cp-Zn-Cq, peptide SEQ ID NO: 83	3.0
C16-LLKK-C16: geminoid in shorthand Cp-Zn-Cq, peptide SEQ ID NO: 66	3.0
C16-LLQK-C16: geminoid in shorthand Cp-Zn-Cq, peptide SEQ ID NO: 81	0.3
C16-NKKR-C16: geminoid in shorthand Cp-Zn-Cq, peptide SEQ ID NO: 86	3.0
C16-QRKR-C16: geminoid in shorthand Cp-Zn-Cq, peptide SEQ ID NO: 85	3.0
C16-RARK-C16: geminoid in shorthand Cp-Zn-Cq, peptide SEQ ID NO: 77	3.0
C20-AKKK-C20: geminoid in shorthand Cp-Zn-Cq, peptide SEQ ID NO: 71	3.0
C20-FKKK-C20: geminoid in shorthand Cp-Zn-Cq, peptide SEQ ID NO: 73 ({C20 alkyl}-FKKK-{C20 alkyl})	0.9
C20-LKKK-C20: geminoid in shorthand Cp-Zn-Cq, peptide SEQ ID NO: 72	1.0

Molecular target: T1, dengue 2 protease
Experiment: Dengue 2 protease inhibition in presence of Triton X-100 (detergent test, Nature Protocol)
Type: biochemical, dengue 2 virus
Conditions: 5 μM of inhibitor, 0.05% Triton X-100
Excerpt: A further investigation of the interactions of the geminoid inhibitors with biological membranes and with membrane-bound proteases is needed. […] The preparation and tests of peptides symmetrically, asymmetrically and singly alkylated with saturated, short (C6), and unsaturated (C18:1) alkyl tails are in progress.

Molecule	% recovery in presence of Triton [%]
CCCCCCCCCCCCNC(=O)[C@H](CCCCN)NC(=O)[C@H](C)NC(=O)[C@H](C)NC(=O)[C@H](C)NC(=O)[C@H](CCCCN)NC(=O)CCCCCCCCCCC [C12KA3KC12, n-C11H23C(O)-Lys-(Ala)3-Lys-(n-C12H25).2TFA] (HELM PEPTIDE1{[CCCCCCCCCCCC(=O)[*:2]].K.A.A.A.K.[CCCCCCCCCCCCN[*:1]]}$$$$V2.0)	45

Same assay, conditions: 5 μM of inhibitor, 0.05% Triton X-100; initial activity in UAF/min

Molecule	Activity with 0.05% Triton
CCCCCCCCCCCCNC(=O)[C@H](CCCCN)NC(=O)[C@H](C)NC(=O)[C@H](C)NC(=O)[C@H](C)NC(=O)[C@H](CCCCN)NC(=O)CCCCCCCCCCC [C12KA3KC12, n-C11H23C(O)-Lys-(Ala)3-Lys-(n-C12H25).2TFA] (HELM PEPTIDE1{[CCCCCCCCCCCC(=O)[*:2]].K.A.A.A.K.[CCCCCCCCCCCCN[*:1]]}$$$$V2.0)	85

Same assay, conditions: 15 μM of inhibitor, 0.05% Triton X-100

Molecule	% recovery in presence of Triton [%]
CCCCCCCCCCCCCCCCNC(=O)[C@H](CCCNC(=N)N)NC(=O)[C@H](C)NC(=O)[C@H](C)NC(=O)[C@H](C)NC(=O)[C@H](CCCNC(=N)N)NC(=O)CCCCCCCCCCCCCCC [C16RA3RC16, n-C15H31C(O)-Arg-(Ala)3-Arg-(n-C16H33).2TFA] (HELM PEPTIDE1{[CCCCCCCCCCCCCCCC(=O)[*:2]].R.A.A.A.R.[CCCCCCCCCCCCCCCCN[*:1]]}$$$$V2.0)	50

Same assay, conditions: 15 μM of inhibitor, 0.05% Triton X-100; initial activity in UAF/min

Molecule	Activity with 0.05% Triton
CCCCCCCCCCCCCCCCNC(=O)[C@H](CCCNC(=N)N)NC(=O)[C@H](C)NC(=O)[C@H](C)NC(=O)[C@H](C)NC(=O)[C@H](CCCNC(=N)N)NC(=O)CCCCCCCCCCCCCCC [C16RA3RC16, n-C15H31C(O)-Arg-(Ala)3-Arg-(n-C16H33).2TFA] (HELM PEPTIDE1{[CCCCCCCCCCCCCCCC(=O)[*:2]].R.A.A.A.R.[CCCCCCCCCCCCCCCCN[*:1]]}$$$$V2.0)	124
